Laboratory results reported in the NIST ThermoML archive (doi:10.1021/je900978x).
± gives the expanded uncertainty stated by the source.

Conditions: Fluid (supercritical or subcritical phases), Buoyancy - hydrostatic balance with magnetic suspension - one sinker

CC [ethane]
Conditions | mass density [kg/m3]
298.15 K, 2000 kPa | 29.226 ± 0.03
298.15 K, 5987 kPa | 352.999 ± 0.36
298.15 K, 7909 kPa | 371.593 ± 0.23
298.15 K, 10071 kPa | 385.867 ± 0.24
298.15 K, 14959 kPa | 407.911 ± 0.25
298.15 K, 20004 kPa | 423.934 ± 0.26
298.15 K, 24927 kPa | 436.235 ± 0.27
298.15 K, 29893 kPa | 446.599 ± 0.27
298.15 K, 35020 kPa | 455.82 ± 0.28
298.15 K, 39905 kPa | 463.582 ± 0.28
298.15 K, 49977 kPa | 477.362 ± 0.29
298.15 K, 75091 kPa | 503.592 ± 0.31
298.15 K, 99827 kPa | 523.125 ± 0.32
298.15 K, 119760 kPa | 536.225 ± 0.33
298.15 K, 149807 kPa | 552.995 ± 0.34
350 K, 1999 kPa | 22.819 ± 0.023
350 K, 29974 kPa | 384.889 ± 0.23
350 K, 49928 kPa | 430.315 ± 0.26
350 K, 74959 kPa | 464.696 ± 0.28
350 K, 100019 kPa | 489.111 ± 0.3
350 K, 124863 kPa | 508.192 ± 0.31
350 K, 149906 kPa | 524.195 ± 0.32
350 K, 172157 kPa | 536.528 ± 0.33
400 K, 805 kPa | 7.452 ± 0.008
400 K, 7325 kPa | 84.481 ± 0.052
400 K, 27286 kPa | 311.921 ± 0.19
400 K, 48575 kPa | 383.533 ± 0.23
400 K, 69346 kPa | 421.214 ± 0.26
400 K, 92289 kPa | 450.02 ± 0.28
400 K, 117459 kPa | 473.901 ± 0.29
400 K, 139686 kPa | 491.026 ± 0.3
400 K, 154657 kPa | 501.119 ± 0.31
400 K, 166558 kPa | 508.474 ± 0.31
400 K, 181565 kPa | 517.111 ± 0.32
400 K, 196062 kPa | 524.823 ± 0.32
450 K, 1998 kPa | 16.685 ± 0.017
450 K, 5021 kPa | 44.467 ± 0.045
450 K, 10001 kPa | 96.599 ± 0.06
450 K, 20005 kPa | 202.282 ± 0.12
450 K, 30018 kPa | 272.417 ± 0.17
450 K, 49974 kPa | 346.238 ± 0.21
450 K, 69967 kPa | 388.105 ± 0.24
450 K, 79928 kPa | 403.693 ± 0.25
450 K, 99962 kPa | 429.113 ± 0.26
450 K, 119860 kPa | 449.29 ± 0.27
450 K, 139478 kPa | 465.963 ± 0.28
